Laboratory results reported in paper PMC3134859, “Chemical Stability of New Acyclovir Analogues with Peptidomimetics” (Scientia Pharmaceutica, 2011).
Values joined by “and” are separate entries in the source; they are usually repeats but may differ in a detail not shown here. Equal values may be shown once. Read-outs that look alike come from different tables or passages of the source.

What was measured:
[1] = cited from earlier work
[2] = cited from earlier work; remark: listed apart in the source
[3] = Chemical stability (hydrolysis) of acyclovir esters in aqueous buffer, unchanged ester quantified by HPLC; assay type: physicochemical; conditions: for pH=1, t½, h: pH 1.0 (0.1 M HCl); for pH=1, t½, h / pH=7.4, t½, h: 37°C, decomposition half-life; for chemical stability at pH 1 (in words): pH 1.0, 37°C, acidic conditions; for pH=7.4, t½, h: pH 7.4 (phosphate buffer); for chemical stability at pH 7.4 (in words): pH 7.4, 37°C
Procedure: It was established that, under the described experimental conditions, some esters underwent decomposition by hydrolysis. The hydrolysis followed apparent first order kinetics, and the rate constants (K) were obtained as slopes from the semi-logarithmic plots of the unchanged ester concentration versus time. The chemical stability was assessed by means of the decomposition half-lives: t1/2=ln2/K
Chromatography was carried out isocratically, on a modular KNAUER HPLC system (Germany), consisting of a Smartline Pump 1000, a Smartline Manager 5000 solvent degasser, an injector with a 20 μl loop and a Smartline UV Detector 2600 diode array. The analyses were controlled and the data were acquired with EuroChrom software. The mobile phase consisted of acetonitrile/water in a ratio of 30:70 or 50:50 v/v depending on the polarity of the compound and a flow rate 1 ml/min was used. The detection was performed at relevant λmax for the respective compound (range 252–262 nm).
A single chromatographic method was used to detect the studied acyclovir esters with thiazole rings containing amino acids (Gly, Ala, Val, Leu) in aqueous buffer solutions at pH 1.0 (0.1 M HCl) and pH 7.4 (phosphate buffer). Twenty microlitres of each sample were injected into a reverse phase HPLC C18 column. The mobile phase consisted of acetonitrile/water at a ratio of 30:70 or 50:50 v/v depending on the polarity of the compound. The analyses of the esters of acyclovir with amino acid (Gly, Ala, Val, Leu) containing thiazole rings were validated. The specificity of the method was investigated by observing potential interference between the esters of acyclovir and its parent drug, acyclovir. No interfering peaks were presented in the chromatograms. The linearity of the relationship between the peak area and concentration was determined by analysing six standard solutions in a concentration range of 0.1–1.0 mmol/l. For all analytes, the relationship between the peak area ratio of the drug to the internal standard and concentration was linear over the entire examined concentration range. The correlation coefficients of the calibration curves were greater than 0.997.
Hydrolysis of acyclovir esters with thiazole rings containing amino acids (Gly, Ala, Val, Leu) was studied at pH 1.0 (HCl) and pH 7.4 (phosphate buffered saline). Stock solutions of the prodrugs were prepared and used immediately for stability studies. Aliquots (9.8 ml) of the buffer were placed in a screw-capped vial and allowed equilibrate at 37°C. A prodrug stock solution (0.2 ml) was added to the buffer. The vial was placed in a constant shaker bath set at 37°C and 60 rpm. Each sample was directly analysed by HPLC.

[4] = cited from earlier work; remark: listed apart in the source
HSV-2 = tested on: HSV-2; set-up: method as in PMID 19400144; conditions: cited from earlier work
HSV-1 = tested on: HSV-1; set-up: method as in PMID 19400144; conditions: cited from earlier work

Structure (SMILES)	pH=1, t½, h [3]	chemical stability at pH 1 (in words) [3]	pH=7.4, t½, h [3]	chemical stability at pH 7.4 (in words) [3]	effect against HSV-2 (HSV-2)	other results
CC(C)[C@H](N)C(=O)OCCOCn1cnc2c(=O)[nH]c(N)nc21 [valacyclovir]						t½ at pH 7.4 ([1]; pH 7.4, 37°C): 13 h; t½ at pH 7.4 ([1]; pH 7.4): 13 h; bioavailability relative to acyclovir ([2]; oral administration): four-fold higher
Nc1nc2c(ncn2COCCO)c(=O)[nH]1 [ACV, 9-[(2-hydroxyethoxy)methyl]guanine]						aqueous solubility [4]: low aqueous solubility; bioavailability by oral administration [2]: 14%
CC(C)(C)OC(=O)NCc1nc(C(=O)OCCOCn2cnc3c(=O)[nH]c(N)nc32)cs1 [compound 1, Boc-2-aminomethyl-thiazole-acyclovir]	1.1±0.1 h	less stable	5.9±0.5 h	lower stability		chemical stability at pH 1 (in words) ([3]; listed as Gly-thiazole): rather unstable

Continued, in another order:

pH=1, t½, h [3]	chemical stability at pH 1 (in words) [3]	pH=7.4, t½, h [3]	chemical stability at pH 7.4 (in words) [3]	Structure (SMILES)	effect against HSV-2 (HSV-2)	other results
2.6±0.2 h	rather unstable	5.0±0.4 h	lower stability	CC(C)CC(NC(=O)OC(C)(C)C)c1nc(C(=O)OCCOCn2cnc3c(=O)[nH]c(N)nc32)cs1 (stereo not drawn) [compound 4, Boc-2-Leu-thiazole-acyclovir]		
0.7±0.1 h	less stable	17 h and 17.8±0.9 h	highest chemical stability	CC(C)C(NC(=O)OC(C)(C)C)c1nc(C(=O)OCCOCn2cnc3c(=O)[nH]c(N)nc32)cs1 (stereo not drawn) [compound 3, Boc-2-Val-thiazole-acyclovir]	did not exhibit a satisfying effect	chemical stability at pH 7.4 (in words) ([3]; listed as Valthiazole-acyclovir): remarkable; effect against HSV-1 (HSV-1): did not exhibit a satisfying effect
1.3±0.1 h	rather unstable	7.8±0.5 h	satisfying chemical stability	CC(NC(=O)OC(C)(C)C)c1nc(C(=O)OCCOCn2cnc3c(=O)[nH]c(N)nc32)cs1 (stereo not drawn) [compound 2, Boc-2-Ala-thiazole-acyclovir]	appreciable effect	effect against HSV-2 (HSV-2; listed as Ala-thiazolyl ester of acyclovir): prominent activity
